Patent publication US11111237B2, “Bicyclic compound and use thereof” (SK BIOPHARMACEUTICALS CO., LTD., priority 2019, dated 2021)
Counter-ions that a name gives are not always drawn.

Biological target: PRMT5-MEP50 enzyme complex (Homo sapiens (Human), UniProt O14744)
Assay: PRMT5 enzyme activity in vitro assay (methylation of histone H4R3, ELISA absorbance at 450 nm)
Format: biochemical
Conditions: SAM, histone H4 peptide, room temperature 2 hours, 8 points from 10 μM to 0.128 nM
Method in brief: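 Human PRMT5-MEP50 was prepared at 5 μg/mL with SAM at 2 μM and reacted 2 h at room temperature on plate-coated histone H4 (1-20) peptide. An 8-point 1:5 compound series ran from 10 μM to 0.128 nM. H4R3 methylation was detected by antibody/HRP ELISA at 450 nm to give IC50.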

PRMT5-MEP50 enzyme complex, sequence (O14744 2-637): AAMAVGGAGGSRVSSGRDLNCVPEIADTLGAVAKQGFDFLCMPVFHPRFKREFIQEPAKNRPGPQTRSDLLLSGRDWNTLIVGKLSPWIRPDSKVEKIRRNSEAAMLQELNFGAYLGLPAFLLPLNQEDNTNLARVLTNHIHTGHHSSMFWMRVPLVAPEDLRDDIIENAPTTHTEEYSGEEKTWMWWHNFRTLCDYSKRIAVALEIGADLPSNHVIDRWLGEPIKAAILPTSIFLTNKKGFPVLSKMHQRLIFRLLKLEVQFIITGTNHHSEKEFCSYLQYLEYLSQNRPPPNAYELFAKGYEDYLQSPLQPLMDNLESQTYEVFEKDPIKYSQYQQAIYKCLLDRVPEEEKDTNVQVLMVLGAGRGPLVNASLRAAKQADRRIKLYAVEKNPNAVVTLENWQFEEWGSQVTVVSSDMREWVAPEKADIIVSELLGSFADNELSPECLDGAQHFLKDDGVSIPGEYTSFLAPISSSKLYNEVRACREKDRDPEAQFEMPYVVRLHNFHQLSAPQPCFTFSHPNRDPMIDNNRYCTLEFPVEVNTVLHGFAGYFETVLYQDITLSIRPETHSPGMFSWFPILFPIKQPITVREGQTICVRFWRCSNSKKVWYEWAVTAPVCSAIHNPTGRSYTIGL
PRMT5-MEP50 enzyme complex, sequence (Q9BQA1 2-342 partner): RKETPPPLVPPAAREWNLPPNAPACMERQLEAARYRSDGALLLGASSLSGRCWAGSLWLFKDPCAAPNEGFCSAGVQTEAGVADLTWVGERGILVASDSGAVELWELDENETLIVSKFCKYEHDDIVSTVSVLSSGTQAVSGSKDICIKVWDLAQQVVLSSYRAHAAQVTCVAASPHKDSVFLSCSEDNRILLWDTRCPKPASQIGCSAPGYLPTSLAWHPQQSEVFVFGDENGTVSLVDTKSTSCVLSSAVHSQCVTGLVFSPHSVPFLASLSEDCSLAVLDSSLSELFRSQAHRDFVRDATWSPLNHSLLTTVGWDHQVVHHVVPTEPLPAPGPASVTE

SMILES	IC50 [nM]
CN1CCN(C[C@H](O)CN2CCc3ccccc3C2)C(=O)c2ccc(OC3CCNCC3F)cc21 (stereo partly drawn) [Example 135, 4-[(2R)-3-(3,4-dihydro-1H-isoquinolin-2-yl)-2-hydroxy-propyl]-8-[(3-fluoro-4-piperidyl)oxy]-1-methyl-2,3-dihydro-1,4-benzodiazepin-5-one; dihydrochloride]	100 to 1000
O=C1c2ccc(Br)cc2OCCN1C[C@H](O)CN1CCc2ccccc2C1 [Example 151, 8-bromo-4-[(2R)-3-(3,4-dihydro-1H-isoquinolin-2-yl)-2-hydroxy-propyl]-2,3-dihydro-1,4-benzoxazepin-5-one]	1 to 100
CCN1CCC(COc2ccc3c(c2)OCCN(C[C@H](O)CN2CCc4ccccc4C2)C3=O)CC1 [Example 103, 4-[(2R)-3-(3,4-dihydro-1H-isoquinolin-2-yl)-2-hydroxy-propyl]-8-[(1-ethyl-4-piperidyl)methoxy]-2,3-dihydro-1,4-benzoxazepin-5-one]	100 to 1000
O=C1c2ccccc2CCCN1CC(O)CN1CCc2ccccc2C1 (stereo not drawn) [Example 148, 2-[3-(3,4-dihydro-1H-isoquinolin-2-yl)-2-hydroxy-propyl]-4,5-dihydro-3H-2-benzazepin-1-one]	1000 to 10000
CN1CCN(C[C@H](O)CN2CCc3ccccc3C2)C(=O)c2ccc(CC3CCCCC3)cc21 [Example 117, 8-(cyclohexylmethyl)-4-[(2R)-3-(3,4-dihydro-1H-isoquinolin-2-yl)-2-hydroxy-propyl]-1-methyl-2,3-dihydro-1,4-benzodiazepin-5-one]	100 to 1000
CN1CCCC(Oc2ccc3c(c2)N(C)CCN(C[C@H](O)CN2CCc4ccccc4C2)C3=O)C1 (stereo partly drawn) [Example 130, 4-[(2R)-3-(3,4-dihydro-1H-isoquinolin-2-yl)-2-hydroxy-propyl]-1-methyl-8-[(1-methyl-3-piperidyl)oxy]-2,3-dihydro-1,4-benzodiazepin-5-one]	100 to 1000
CC1CCN(Cc2ccc3c(c2)OCCN(C[C@H](O)CN2CCc4ccccc4C2)C3=O)CC1 [Example 27, 4-[(2R)-3-(3,4-dihydro-1H-isoquinolin-2-yl)-2-hydroxy-propyl]-8-[(4-methyl-1-piperidyl)methyl]-2,3-dihydro-1,4-benzoxazepin-5-one]	1 to 100
COCCN1CC[C@@H](Oc2ccc3c(c2)OCCN(C[C@H](O)CN2CCc4ccccc4C2)C3=O)C1 [Example 272, 4-[(2R)-3-(3,4-dihydro-1H-isoquinolin-2-yl)-2-hydroxy-propyl]-8-[(3R)-1-(2-methoxyethyl)pyrrolidin-3-yl]oxy-2,3-dihydro-1,4-benzoxazepin-5-one]	100 to 1000
C[C@H]1CN(C[C@H](O)CN2CCc3ccccc3C2)C(=O)c2ccc(OC3CCN(C)CC3)cc2O1 [Example 146, (2S)-4-[(2R)-3-(3,4-dihydro-1H-isoquinolin-2-yl)-2-hydroxypropyl]-2-methyl-8-[(1-methyl-4-piperidyl)oxy]-2,3-dihydro-1,4-benzoxazepin-5-one]	100 to 1000
CN1CCCC(COc2ccc3c(c2)N(C)CCN(C[C@H](O)CN2CCc4ccccc4C2)C3=O)C1 (stereo partly drawn) [Example 133, 4-[(2R)-3-(3,4-dihydro-1H-isoquinolin-2-yl)-2-hydroxy-propyl]-1-methyl-8-[(1-methyl-3-piperidyl)methoxy]-2,3-dihydro-1,4-benzodiazepin-5-one]	1 to 100
O=C1c2ccc(CN3CCC(O)CC3)cc2OCCN1C[C@H](O)CN1CCc2ccccc2C1 [Example 45, 4-[(2R)-3-(3,4-dihydro-1H-isoquinolin-2-yl)-2-hydroxy-propyl]-8-[(4-hydroxy-1-piperidyl)methyl]-2,3-dihydro-1,4-benzoxazepin-5-one]	1 to 100
CC(O)C#Cc1ccc2c(c1)OCCN(C[C@H](O)CN1CCc3ccccc3C1)C2=O (stereo partly drawn) [Example 228, 4-[(2R)-3-(3,4-dihydro-1H-isoquinolin-2-yl)-2-hydroxy-propyl]-8-(3-hydroxybu-1-tynyl)-2,3-dihydro-1,4-benzoxazepin-5-one]	1 to 100
CC(O)CN1CCC(Oc2ccc3c(n2)OC(C)(C)CN(C[C@H](O)CN2CCc4ccccc4C2)C3=O)CC1 (stereo partly drawn) [Example 248, 4-[(2R)-3-(3,4-dihydro-1H-isoquinolin-2-yl)-2-hydroxy-propyl]-8-[[1-(2-hydroxypropyl)-4-piperidyl]oxy]-2,2-dimethyl-3H-pyrido[3,2-f][1,4]oxazepin-5-one]	1 to 100
CC1(C)CN(C[C@H](O)CN2CCc3ccccc3C2)C(=O)c2ccc(CN3CCC4(COC4)C3)cc2O1 [Example 183, 4-[(2R)-3-(3,4-dihydro-1H-isoquinolin-2-yl)-2-hydroxy-propyl]-2,2-dimethyl-8-(2-oxa-7-azaspiro[3.4]octan-7-ylmethyl)-3H-1,4-benzoxazepin-5-one]	100 to 1000
O=C1c2ccc(OCc3ccc(F)cn3)cc2OCCN1C[C@H](O)CN1CCc2ccccc2C1 [Example 63, 4-[(2R)-3-(3,4-dihydro-1H-isoquinolin-2-yl)-2-hydroxy-propyl]-8-[(5-fluoro-2-pyridyl)methoxy]-2,3-dihydro-1,4-benzoxazepin-5-one]	1 to 100
CC(=O)N1CCN(Cc2ccc3c(c2)OC(C)(C)CN(C[C@H](O)CN2CCc4ccccc4C2)C3=O)CC1 [Example 167, 8-[(4-acetylpiperazin-1-yl)methyl]-4-[(2R)-3-(3,4-dihydro-1H-isoquinolin-2-yl)-2-hydroxy-propyl]-2,2-dimethyl-3H-1,4-benzoxazepin-5-one]	100 to 1000
O=C1c2ccc(-c3cccnc3)cc2OCCN1C[C@H](O)CN1CCc2ccccc2C1 [Example 230, 4-[(2R)-3-(3,4-dihydro-1H-isoquinolin-2-yl)-2-hydroxy-propyl]-8-(3-pyridyl)-2,3-dihydro-1,4-benzoxazepin-5-one]	1 to 100
CC1CN(C[C@H](O)CN2CCc3ccccc3C2)C(=O)c2ccc(OC3CCNCC3)cc2O1 (stereo partly drawn) [Example 140, 4-[(2R)-3-(3,4-dihydro-1H-isoquinolin-2-yl)-2-hydroxypropyl]-2-methyl-8-(4-piperidyloxy)-2,3-dihydro-1,4-benzoxazepin-5-one di hydrochloride]	100 to 1000
CC1CN(C(=O)c2ccc3c(c2)OCCN(C[C@H](O)CN2CCc4ccccc4C2)C3=O)CCO1 (stereo partly drawn) [Example 190, 4-[(2R)-3-(3,4-dihydro-1H-isoquinolin-2-yl)-2-hydroxy-propyl]-8-(2-methylmorpholin-4-carbonyl)-2,3-dihydro-1,4-benzoxazepin-5-one]	100 to 1000
CN1CCC(Oc2ccc3c(c2)OCCN(C[C@H](O)CN2CCc4ccccc4C2)C3=O)C(F)C1 (stereo partly drawn) [Example 206, 4-[(2R)-3-(3,4-dihydro-1H-isoquinolin-2-yl)-2-hydroxy-propyl]-8-[(3-fluoro-1-methyl-4-piperidyl)oxy]-2,3-dihydro-1,4-benzoxazepin-5-one]	100 to 1000
O=C1c2ccc(OC3CCN(CCF)CC3)nc2OCCN1C[C@H](O)CN1CCc2ccccc2C1 [Example 164, 4-[(2R)-3-(3,4-dihydro-1H-isoquinolin-2-yl)-2-hydroxy-propyl]-8-[[1-(2-fluoroethyl)-4-piperidyl]oxy]-2,3-di hydropyrido[3,2-f][1,4]oxazepin-5-one]	100 to 1000
CC(=O)N1CCC(Oc2ccc3c(c2)N(C)CCN(C[C@H](O)CN2CCc4ccccc4C2)C3=O)CC1 [Example 121, 8-[(1-acetyl-4-piperidyl)oxy]-4-[(2R)-3-(3,4-dihydro-1H-isoquinolin-2-yl)-2-hydroxy-propyl]-1-methyl-2,3-dihydro-1,4-benzodiazepin-5-one]	100 to 1000
CN1CC(Oc2ccc3c(c2)OCCN(C[C@H](O)CN2CCc4ccccc4C2)C3=O)C1 [Example 93, 4-[(2R)-3-(3,4-dihydro-1H-isoquinolin-2-yl)-2-hydroxy-propyl]-8-(1-methylazetidin-3-yl)oxy-2,3-dihydro-1,4-benzoxazepin-5-one]	100 to 1000
N#CN1CCC(Oc2ccc3c(c2)OCCN(C[C@H](O)CN2CCc4ccccc4C2)C3=O)CC1 [Example 166, 4-[[4-[(2R)-3-(3,4-dihydro-1H-isoquinolin-2-yl)-2-hydroxypropyl]-5-oxo-2,3-dihydro-1,4-benzoazepin-8-yl]oxy]piperidine-1-carbonitrile]	100 to 1000
CC(=O)N1CC[C@@H](Oc2ccc3c(c2)OCCN(C[C@H](O)CN2CCc4ccccc4C2)C3=O)C1 [Example 81, 8-[(3R)-1-acetylpyrrolidin-3-yl]oxy-4-[(2R)-3-(3,4-dihydro-1H-isoquinolin-2-yl)-2-hydroxy-propyl]-2,3-dihydro-1,4-benzoxazepin-5-one]	1 to 100
CC1(C)CN(C[C@H](O)CN2CCc3ccccc3C2)C(=O)c2ccc(C(=O)N3CC4CC3CO4)cc2O1 (stereo partly drawn) [Example 204, 4-[(2R)-3-(3,4-dihydro-1H-isoquinolin-2-yl)-2-hydroxy-propyl]-2,2-dimethyl-8-(2-oxa-5-azabicyclo[2.2.1]heptan-5-carbonyl)-3H-1,4-benzoxazepin-5-one]	100 to 1000
CC(=O)N1CC2(CC(Oc3ccc4c(c3)OCCN(C[C@H](O)CN3CCc5ccccc5C3)C4=O)C2)C1 [Example 174, 8-[(2-acetyl-2-azaspiro[3.3]heptan-6-yl)oxy]-4-[(2R)-3-(3,4-dihydro-1H-isoquinolin-2-yl)-2-hydroxy-propyl]-2,3-dihydro-1,4-benzoxazepin-5-one]	1 to 100
CCN1CCN(C[C@H](O)CN2CCc3ccccc3C2)C(=O)c2ccc(Br)cc21 [Example 157, 8-bromo-4-[(2R)-3-(3,4-dihydro-1H-isoquinolin-2-yl)-2-hydroxy-propyl]-1-ethyl-2,3-dihydro-1,4-benzodiazepin-5-one]	1 to 100
Cc1ccc2c(c1)OCCN(C[C@H](O)CN1CCc3ccccc3C1)C2=O [Example 10, 4-[(2R)-3-(3,4-dihydro-1H-isoquinolin-2-yl)-2-hydroxy-propyl]-8-methyl-2,3-dihydro-1,4-benzoxazepin-5-one]	100 to 1000
O=C(c1ccc2c(c1)OCCN(C[C@H](O)CN1CCc3ccccc3C1)C2=O)N1CCCCC1 [Example 176, 4-[(2R)-3-(3,4-dihydro-1H-isoquinolin-2-yl)-2-hydroxy-propyl]-8-(piperidine-1-carbonyl)-2,3-dihydro-1,4-benzoxazepin-5-one]	100 to 1000
